Several values for one entry are separate records, joined by “and”; a condition that tells them apart may be missing. Equal values may be shown once. Read-outs that look alike come from different tables or passages of the source.
Experiments:
[1] = design: method as in PMID 32055586; conditions: Observed (n = 12); single 100 mg tegoprazan; mean (5th–95th percentile); cited from earlier work
[2] = Microsomal metabolic stability in human liver microsomes; assay type: in vitro ADME
Procedure: The NADPH-generating system, glucose 6-phosphate (3.3 mM), 0.1 M potassium phosphate (pH 7.4), and human liver microsomes (HLMs; 0.5 mg/mL) were combined and incubated at 37 °C for 5 min. The organic content in the reaction mixture was 0.01% DMSO and less than 1% acetonitrile. Then, 1 μM tegoprazan and M1 were added to the reaction tube (total volume: 160 μL) and incubated at 37 °C for 0, 5, 15, 30, and 60 min. To terminate the reaction, 320 μL of acetonitrile containing an internal standard (100 ng/mL carbamazepine) was added to each sample. All experiments were performed in triplicate. The samples were vortexed for 5 min and centrifuged at 3000 rpm at 4 °C for 10 min. The concentrations of tegoprazan and M1 were determined by liquid chromatography–tandem mass spectrometry (LC–MS/MS). The concentrations of tegoprazan and M1 at 0 min were used to assess metabolism by HLMs based on changes in drug concentration over time. The terminal slope of linear regression was used to calculate the intrinsic clearance (CLint) of tegoprazan and M1. For the in vitro HLM system, CLint was calculated using Equation (1). CLint,mic (μL/min/mg protein) = k × Vincubation/Cincubation(1) where Vincubation is the incubation volume and Cincubation is the concentration of the microsomal protein.

CYP3A4 [3] = tested on: CYP3A4; design: method as in ref 17, 18 = [17]; 17. Tegoprazan (K-CAB) Available online: https://pdfslide.net/reader/f/tegoprazan-k-cab-2019-02-08-tegoprazan-metabolic-pathway-75-by-cyp3a4 (accessed on 10 December 2020) || [18]; PMID 34575565; doi:10.3390/pharmaceutics13091489; 18. Yoon D.Y. Lee S. Jang I.-J. Kim M. Lee H. Kim S. Kim B. Song G.S. Rhee S.-J. Prediction of Drug–Drug Interaction Potential of Tegoprazan Using Physiologically Based Pharmacokinetic Modeling and Si; conditions: cited from earlier work
recombinant CYP2D6 = biological target: T1, recombinant CYP2D6 (Homo sapiens, UniProt P10635); test: Intrinsic clearance using recombinant CYPs: CYP2D6; assay type: in vitro ADME; conditions: 1 μM
T1 construct: purchased Corning Life Sciences (Woburn, MA, USA)
T1 sequence (P10635 whole entry): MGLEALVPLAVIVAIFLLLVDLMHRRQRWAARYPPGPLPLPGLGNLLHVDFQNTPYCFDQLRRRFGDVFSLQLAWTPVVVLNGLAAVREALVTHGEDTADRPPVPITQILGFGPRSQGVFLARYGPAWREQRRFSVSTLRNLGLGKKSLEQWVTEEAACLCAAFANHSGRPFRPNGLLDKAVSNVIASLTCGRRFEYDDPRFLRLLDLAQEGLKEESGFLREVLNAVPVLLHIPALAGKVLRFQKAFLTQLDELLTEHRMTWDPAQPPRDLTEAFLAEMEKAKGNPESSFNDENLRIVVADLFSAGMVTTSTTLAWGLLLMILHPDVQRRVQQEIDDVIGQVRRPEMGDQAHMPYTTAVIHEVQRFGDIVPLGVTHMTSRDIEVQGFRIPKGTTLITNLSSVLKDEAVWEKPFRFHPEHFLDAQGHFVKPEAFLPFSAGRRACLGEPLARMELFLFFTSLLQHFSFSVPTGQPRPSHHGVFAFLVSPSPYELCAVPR
Procedure: The elimination profiles of tegoprazan and M1 were assessed using rCYPs. All the assay procedures were performed according to the manufacturer’s instructions. Master mix (1.399 mL), containing the NADPH-generating system, 3.3 mM of glucose 6-phosphate, PBS buffer, deionized water, and each rCYP (25 pmol/μL of CYP2C8, 2C19, and 2E1 and 50 pmol/μL of CYP3A4, 2C9, and 2D6), was added to a microtube and pre-incubated at 37 °C for 5 min. Next, 1 μM tegoprazan and M1 were added and incubated at 37 °C for 0, 5, 10, 20, 30, 45, and 60 min. A total of 100 μL of the sample, incubated for predefined duration, was transferred to a fresh e-tube. Next, 200 μL of acetonitrile containing tegoprazan-d6 (0.5 μM) was added, vortexed for 5 min, and centrifuged at 16,200× g and 4 °C for 10 min. The concentrations of the remaining tegoprazan and M1 were determined by LC–MS/MS. All experiments were performed in duplicate. CLint,rCYP levels were assessed using the results of the disappearance test. The terminal slope of the linear regression was used to determine the CLint for tegoprazan. The CLint resulting from rCYPs was calculated using Equation (3):(3) CLint,rCYP(μL/min/pmol CYP)=0.693/t1/2×1400/concentration of CYP […]

CYP3A4 [4] = tested on: CYP3A4; design: method as in ref 18 = [18]; PMID 34575565; doi:10.3390/pharmaceutics13091489; 18. Yoon D.Y. Lee S. Jang I.-J. Kim M. Lee H. Kim S. Kim B. Song G.S. Rhee S.-J. Prediction of Drug–Drug Interaction Potential of Tegoprazan Using Physiologically Based Pharmacokinetic Modeling and Si; conditions: cited from earlier work
[5] = cited from earlier work
[6] = design: method as in earlier work; conditions: cited from earlier work
[7] = At 30 min after a high-fat meal, Observed (n = 12), single 50 mg, ref 34 (footnote; text: ref 16)

Cc1nc2cc(C(=O)N(C)C)cc(O[C@H]3CCOc4cc(F)cc(F)c43)c2[nH]1 [tegoprazan]
AUC0–24 h [1]: 5611 (3783–7489) ng × h/mL
CL [1]: 17.8 (13.1–24.4) L/h
Cmax [1]: 1425 (908–2184) ng/mL
HLM intrinsic clearance (CLint,HLM) ([2]; 1 μM, HLM 0.5 mg/mL with NADPH, experimental data): 15.96 μL/min/mg protein
percentage remaining after incubation ([2]; control sample without NADPH): 99.54% ± 5.32
microsomal CLint at 1 μM ([2]; human, human liver microsomes, pH 7.4, 1 μM, HLM 0.5 mg/mL with NADPH, experimental data, read-out: HLM intrinsic clearance (CLint,HLM)): 16 µL/min/mg
metabolic fraction by CYP3A4 of total hepatic clearance (CYP3A4 [3]): approximately 75%
CLint, CYP2D6 (recombinant CYP2D6; experimental data): 0.02 µL/min/pmol and 0.020 µL/min/pmol
Slope (disappearance) (recombinant CYP2D6; rCYP2D6): < 0.001
predicted systemic exposure change (CYP3A4 [4]; co-administered with the maximum recommended dose of clarithromycin or ketoconazole vs without CYP3A4 modulator): increased by approximately three-fold
predicted decrease of systemic exposure (CYP3A4 [4]; with the CYP3A4 inducer rifampicin): up to 30%
Tmax ([5]; At 30 min after a high-fat meal, Observed (n = 12), single 50 mg, median (min–max), ref 34 (footnote; text: ref 16)): 3.0 (0.5–8.0) h
AUC0–24 h [5, 7]: 3017 ± 1194 ng·h/mL
Cmax [5, 7]: 492.0 ± 293.9 ng/mL
AUC0–24 h ([5]; Fast, Observed (n = 12), single 50 mg, mean ± SD, ref 34 (footnote; text: ref 16)): 2837 ± 1055 ng·h/mL
Cmax ([5]; Fast, Observed (n = 12), single 50 mg, ref 34 (footnote; text: ref 16)): 803.0 ± 156.2 ng/mL
Cmax ([5]; administered at 30 min after high-fat meal, observed): 492 ng/mL
median Tmax ([5]; at 30 min before a high-fat meal, observed): 28.8 min
Cmax ([5]; fasting state, observed): 803 ng/mL
Cmax at 30 min after a high-fat meal compared with fasting state (decreased to) ([5]; observed): 38.7%
CLR (renal clearance) [6]: 1.1 L/h
fu (unbound fraction) ([6]; plasma): 0.087

From paper PMC9230797, “Integration of a Physiologically Based Pharmacokinetic and Pharmacodynamic Model for Tegoprazan and Its Metabolite: Application for Predicting Food Effect and Intragastric pH Alterations” (Pharmaceutics, 2022)
